Source: patent US10004701B2, “Methods and compositions for treating infection” (UNIVERSITY OF ROCHESTER, priority 2012, dated 2018)
Structures can show the parent of a compound that is named as a salt. Where two headings read alike, the source gives them in different places.

Key:
Assay in all cases: AK assay 384-well format, Prestwick library screening
P. aeruginosa = type: cell-based, Pseudomonas aeruginosa; settings: for fold induction at 50 µM: Pseudomonas aeruginosa, 3 h
K. pneumoniae = type: cell-based, Klebsiella pneumoniae; settings: for fold induction at 50 µM: Klebsiella pneumoniae, 3 h
[1] = test system: A. baumannii strain 98-37-09; type: cell-based, Acinetobacter baumannii; settings: for fold induction at 50 µM: Acinetobacter baumannii, 983709, 3 h
[2] = test system: S. aureus strain USA300-0114; type: cell-based, Staphylococcus aureus; settings: for fold induction at 50 µM: Staphylococcus aureus, USA300, 3 h
E. cloacae = type: cell-based, Enterobacter cloacae; settings: for fold induction at 50 µM: Enterobacter cloacae, 3 h
E. coli = type: cell-based, Escherichia coli; settings: for fold induction at 50 µM: Escherichia coli, 3 h
E. faecium = type: cell-based, Enterococcus faecium; settings: for fold induction at 50 µM: Enterococcus faecium, 3 h
[3] = 50 μM final drug concentration, cutoff for positive-scoring molecules 3-fold increase
[4] = 50 μM final drug concentration, planktonic, […], read-out: AK-based Prestwick Library Screening Results, E. coli (fold increase in extracellular AK activity)
[5] = 50 μM final drug concentration, planktonic, cutoff for positive-scoring molecules 3-fold increase, read-out: AK-based Prestwick Library Screening Results, P. aeruginosa (fold increase in extracellular AK activity)
[6] = 50 μM final drug concentration, planktonic, cutoff for positive-scoring molecules 3-fold increase, read-out: AK-based Prestwick Library Screening Results, K. pneumoniae (fold increase in extracellular AK activity)
[7] = 50 μM final drug concentration, planktonic, cutoff for positive-scoring molecules 3-fold increase, read-out: AK-based Prestwick Library Screening Results, A. baumannii (fold increase in extracellular AK activity)
[8] = 50 μM final drug concentration, planktonic, cutoff for positive-scoring molecules 3-fold increase, read-out: AK-based Prestwick Library Screening Results, S. aureus (fold increase in extracellular AK activity)
[9] = 50 μM final drug concentration, planktonic, cutoff for positive-scoring molecules 3-fold increase, read-out: AK-based Prestwick Library Screening Results, E. cloacae (fold increase in extracellular AK activity)
[10] = 50 μM final drug concentration, planktonic, cutoff for positive-scoring molecules 3-fold increase, read-out: AK-based Prestwick Library Screening Results, E. coli (fold increase in extracellular AK activity)
[11] = 50 μM final drug concentration, planktonic, cutoff for positive-scoring molecules 3-fold increase, read-out: AK-based Prestwick Library Screening Results, E. faecium (fold increase in extracellular AK activity)

Structure (SMILES): NCC1(CC(=O)O)CCCCC1 [Gabapentin]
- fold induction at 50 µM (P. aeruginosa; 50 μM final drug concentration, […], read-out: AK-based Prestwick Library Screening Results, P. aeruginosa (fold increase in extracellular AK activity)): 1.3
- fold induction at 50 µM (K. pneumoniae; 50 μM final drug concentration, […], read-out: AK-based Prestwick Library Screening Results, K. pneumoniae (fold increase in extracellular AK activity)): 1.1
- fold induction at 50 µM ([1]; 50 μM final drug concentration, […], read-out: AK-based Prestwick Library Screening Results, A. baumannii (fold increase in extracellular AK activity)): 1.4
- fold induction at 50 µM ([2]; 50 μM final drug concentration, […], read-out: AK-based Prestwick Library Screening Results, S. aureus (fold increase in extracellular AK activity)): 1.5
- fold induction at 50 µM (E. cloacae; 50 μM final drug concentration, […], read-out: AK-based Prestwick Library Screening Results, E. cloacae (fold increase in extracellular AK activity)): 1.6
- fold induction at 50 µM (E. coli; 50 μM final drug concentration, […], read-out: AK-based Prestwick Library Screening Results, E. coli (fold increase in extracellular AK activity)): 1.4
- fold induction at 50 µM (E. faecium; 50 μM final drug concentration, […], read-out: AK-based Prestwick Library Screening Results, E. faecium (fold increase in extracellular AK activity)): 1

Structure (SMILES): O=C(O)CNC(=O)C(CS)Cc1ccccc1 (stereo not shown) [Thiorphan]
- fold induction at 50 µM (P. aeruginosa; read-out: AK-based Prestwick Library Screening Results, P. aeruginosa (fold increase in extracellular AK activity)): 1.2
- fold induction at 50 µM (K. pneumoniae; read-out: AK-based Prestwick Library Screening Results, K. pneumoniae (fold increase in extracellular AK activity)): 1.3
- fold induction at 50 µM ([1]; read-out: AK-based Prestwick Library Screening Results, A. baumannii (fold increase in extracellular AK activity)): 1.2
- fold induction at 50 µM ([2]; read-out: AK-based Prestwick Library Screening Results, S. aureus (fold increase in extracellular AK activity)): 1.3
- fold induction at 50 µM (E. cloacae; read-out: AK-based Prestwick Library Screening Results, E. cloacae (fold increase in extracellular AK activity)): 1.5
- fold induction at 50 µM (E. coli; read-out: AK-based Prestwick Library Screening Results, E. coli (fold increase in extracellular AK activity)): 1.2
- fold induction at 50 µM (E. faecium; read-out: AK-based Prestwick Library Screening Results, E. faecium (fold increase in extracellular AK activity)): 1

Structure (SMILES): CC(C)(C)NC[C@H](O)COc1cccc2c1CCCC2=O.Cl [(−)-Levobunolol hydrochloride]
- AK-based Prestwick Library Screening Results, P. aeruginosa (fold increase in extracellular AK activity) (P. aeruginosa; [3]): 1.2
- AK-based Prestwick Library Screening Results, K. pneumoniae (fold increase in extracellular AK activity) (K. pneumoniae; [3]): 1.0
- AK-based Prestwick Library Screening Results, A. baumannii (fold increase in extracellular AK activity) [1, 3]: 1.0
- AK-based Prestwick Library Screening Results, S. aureus (fold increase in extracellular AK activity) [2, 3]: 1.0
- AK-based Prestwick Library Screening Results, E. cloacae (fold increase in extracellular AK activity) (E. cloacae; [3]): 1.9
- AK-based Prestwick Library Screening Results, E. coli (fold increase in extracellular AK activity) (E. coli; [3]): 1.3
- AK-based Prestwick Library Screening Results, E. faecium (fold increase in extracellular AK activity) (E. faecium; [3]): 1.0

Structure (SMILES): CNC[C@H](O)[C@@H](O)[C@H](O)[C@H](O)CO [Meglumine]
- fold induction at 50 µM (P. aeruginosa; 50 μM final drug concentration, planktonic, […], read-out: AK-based Prestwick Library Screening Results, P. aeruginosa (fold increase in extracellular AK activity)): 0.5
- fold induction at 50 µM (K. pneumoniae; 50 μM final drug concentration, planktonic, […], read-out: AK-based Prestwick Library Screening Results, K. pneumoniae (fold increase in extracellular AK activity)): 0.7
- fold induction at 50 µM ([1]; 50 μM final drug concentration, planktonic, […], read-out: AK-based Prestwick Library Screening Results, A. baumannii (fold increase in extracellular AK activity)): 0.5
- fold induction at 50 µM ([2]; 50 μM final drug concentration, planktonic, […], read-out: AK-based Prestwick Library Screening Results, S. aureus (fold increase in extracellular AK activity)): 0.5
- fold induction at 50 µM (E. cloacae; 50 μM final drug concentration, planktonic, […], read-out: AK-based Prestwick Library Screening Results, E. cloacae (fold increase in extracellular AK activity)): 0.6
- fold induction at 50 µM (E. coli; [4]): 0.5
- fold induction at 50 µM (E. faecium; 50 μM final drug concentration, planktonic, […], read-out: AK-based Prestwick Library Screening Results, E. faecium (fold increase in extracellular AK activity)): 0.8

Structure (SMILES): CC(=O)N1CCN(c2ccc(OCC3COC(Cn4ccnc4)(c4ccc(Cl)cc4Cl)O3)cc2)CC1 (stereo not shown) [Ketoconazole]
- fold induction at 50 µM (P. aeruginosa; 50 μM final drug concentration, planktonic, cutoff for positive 3-fold increase, read-out: AK-based Prestwick Library Screening Results, P. aeruginosa (fold increase in extracellular AK activity)): 1.1
- fold induction at 50 µM (K. pneumoniae; 50 μM final drug concentration, planktonic, cutoff for positive 3-fold increase, read-out: AK-based Prestwick Library Screening Results, K. pneumoniae (fold increase in extracellular AK activity)): 1.2
- fold induction at 50 µM ([1]; 50 μM final drug concentration, planktonic, cutoff for positive 3-fold increase, read-out: AK-based Prestwick Library Screening Results, A. baumannii (fold increase in extracellular AK activity)): 1.5
- fold induction at 50 µM ([2]; 50 μM final drug concentration, planktonic, cutoff for positive 3-fold increase, read-out: AK-based Prestwick Library Screening Results, S. aureus (fold increase in extracellular AK activity)): 1.2
- fold induction at 50 µM (E. cloacae; 50 μM final drug concentration, planktonic, cutoff for positive 3-fold increase, read-out: AK-based Prestwick Library Screening Results, E. cloacae (fold increase in extracellular AK activity)): 1.5
- fold induction at 50 µM (E. coli; [4]): 1.3
- fold induction at 50 µM (E. faecium; 50 μM final drug concentration, planktonic, cutoff for positive 3-fold increase, read-out: AK-based Prestwick Library Screening Results, E. faecium (fold increase in extracellular AK activity)): 0.9

Structure (SMILES): O=c1cc(-c2ccc(O)c(O)c2)oc2cc(O)cc(O)c12 [Luteolin]
- fold induction at 50 µM (P. aeruginosa; 50 μM final drug concentration, cutoff for positive-scoring molecules 3-fold increase, read-out: AK-based Prestwick Library Screening Results, P. aeruginosa (fold increase in extracellular AK activity)): 0.5
- fold induction at 50 µM (K. pneumoniae; 50 μM final drug concentration, cutoff for positive-scoring molecules 3-fold increase, read-out: AK-based Prestwick Library Screening Results, K. pneumoniae (fold increase in extracellular AK activity)): 0.5
- fold induction at 50 µM ([1]; 50 μM final drug concentration, cutoff for positive-scoring molecules 3-fold increase, read-out: AK-based Prestwick Library Screening Results, A. baumannii (fold increase in extracellular AK activity)): 0.3
- fold induction at 50 µM ([2]; 50 μM final drug concentration, cutoff for positive-scoring molecules 3-fold increase, read-out: AK-based Prestwick Library Screening Results, S. aureus (fold increase in extracellular AK activity)): 0.2
- fold induction at 50 µM (E. cloacae; 50 μM final drug concentration, cutoff for positive-scoring molecules 3-fold increase, read-out: AK-based Prestwick Library Screening Results, E. cloacae (fold increase in extracellular AK activity)): 1.6
- fold induction at 50 µM (E. coli; 50 μM final drug concentration, cutoff for positive-scoring molecules 3-fold increase, read-out: AK-based Prestwick Library Screening Results, E. coli (fold increase in extracellular AK activity)): 0.4
- fold induction at 50 µM (E. faecium; 50 μM final drug concentration, cutoff for positive-scoring molecules 3-fold increase, read-out: AK-based Prestwick Library Screening Results, E. faecium (fold increase in extracellular AK activity)): 0.5

Structure (SMILES): Cc1ccc(N(CC2=NCCN2)c2cccc(O)c2)cc1 [Phentolamine hydrochloride]
- fold induction at 50 µM (P. aeruginosa; planktonic P. aeruginosa, 50 μM final drug concentration, 384-well, cutoff for positive-scoring molecules 3-fold increase, read-out: AK-based Prestwick Library Screening Results: P. aeruginosa (increase in extracellular AK activity)): 1.2
- fold induction at 50 µM (K. pneumoniae; planktonic K. pneumoniae, 50 μM final drug concentration, 384-well, cutoff for positive-scoring molecules 3-fold increase, read-out: AK-based Prestwick Library Screening Results: K. pneumoniae (increase in extracellular AK activity)): 1.1
- fold induction at 50 µM ([1]; planktonic A. baumannii, 50 μM final drug concentration, 384-well, cutoff for positive-scoring molecules 3-fold increase, read-out: AK-based Prestwick Library Screening Results: A. baumannii (increase in extracellular AK activity)): 1.4
- fold induction at 50 µM ([2]; planktonic S. aureus, 50 μM final drug concentration, 384-well, cutoff for positive-scoring molecules 3-fold increase, read-out: AK-based Prestwick Library Screening Results: S. aureus (increase in extracellular AK activity)): 1.1
- fold induction at 50 µM (E. cloacae; planktonic E. cloacae, 50 μM final drug concentration, 384-well, cutoff for positive-scoring molecules 3-fold increase, read-out: AK-based Prestwick Library Screening Results: E. cloacae (increase in extracellular AK activity)): 1.2
- fold induction at 50 µM (E. coli; planktonic E. coli, 50 μM final drug concentration, 384-well, cutoff for positive-scoring molecules 3-fold increase, read-out: AK-based Prestwick Library Screening Results: E. coli (increase in extracellular AK activity)): 1.4
- fold induction at 50 µM (E. faecium; planktonic E. faecium, 50 μM final drug concentration, 384-well, cutoff for positive-scoring molecules 3-fold increase, read-out: AK-based Prestwick Library Screening Results: E. faecium (increase in extracellular AK activity)): 1

Structure (SMILES): Cl.OC(CCN1CCCCC1)(c1ccccc1)C1CCCCC1 (stereo not shown) [Trihexyphenidyl-D,L Hydrochloride]
- AK-based Prestwick Library Screening Results, P. aeruginosa (fold increase in extracellular AK activity) (P. aeruginosa; [3]): 1.3
- AK-based Prestwick Library Screening Results, K. pneumoniae (fold increase in extracellular AK activity) (K. pneumoniae; [3]): 1.1
- AK-based Prestwick Library Screening Results, A. baumannii (fold increase in extracellular AK activity) [1, 3]: 1.4
- AK-based Prestwick Library Screening Results, S. aureus (fold increase in extracellular AK activity) [2, 3]: 1.4
- AK-based Prestwick Library Screening Results, E. cloacae (fold increase in extracellular AK activity) (E. cloacae; [3]): 1.5
- AK-based Prestwick Library Screening Results, E. coli (fold increase in extracellular AK activity) (E. coli; [3]): 1.2
- AK-based Prestwick Library Screening Results, E. faecium (fold increase in extracellular AK activity) (E. faecium; [3]): 1.1

Structure (SMILES): COc1ccc(C(=O)c2ccccc2)c(O)c1 [Oxybenzone]
- fold induction at 50 µM (P. aeruginosa; [5]): 0.5
- fold induction at 50 µM (K. pneumoniae; [6]): 0.4
- fold induction at 50 µM [1, 7]: 0.4
- fold induction at 50 µM [2, 8]: 0.4
- fold induction at 50 µM (E. cloacae; [9]): 0.6
- fold induction at 50 µM (E. coli; [10]): 0.5
- fold induction at 50 µM (E. faecium; [11]): 0.7

Structure (SMILES): Nc1ccc(C(=O)NCC(=O)O)cc1 [Aminohippuric acid]
- fold induction at 50 µM (P. aeruginosa; [5]): 0.7
- fold induction at 50 µM (K. pneumoniae; [6]): 0.6
- fold induction at 50 µM [1, 7]: 0.7
- fold induction at 50 µM [2, 8]: 0.6
- fold induction at 50 µM (E. cloacae; [9]): 0.8
- fold induction at 50 µM (E. coli; [10]): 0.7
- fold induction at 50 µM (E. faecium; [11]): 0.9
